Experimental data published in patent US12319655B2, “RAF kinase inhibitors and methods of use thereof” (Deciphera Pharmaceuticals, LLC, priority 2021, dated 2025).

Experiments:
H2405 cells = test: H2405 Cell Proliferation Assay (2); type: cell-based; details: Homo sapiens, NCI-H2405
Experimental: H2405 Cell Proliferation Assay (2)
H2405 cells (catalog #CRL-5994) are obtained from the American Type Culture Collect (ATTC, Manassas, VA). Briefly, cells were grown in RPMI 1640 supplemented with 5% characterized fetal bovine serum (Invitrogen, Carlsbad, CA) and 1% Penicillin/Streptomycin/L-Glutamine at 37° C., 5% CO2, and 95% humidity. Cells are expanded until reaching 70-95% confluency at which point they are sub-cultured or harvested for assay use. A serial dilution of test compound is dispensed into a 384-well black clear bottom plate in triplicate. Seven hundred fifty cells are added per well in 50 μL complete growth medium in the 384-well plate. Plates are incubated for 67-72 h at 37° C., 5% CO2, and 95% humidity. At the end of the incubation, 10 μL of a 440 μM solution of resazurin (Sigma, St. Louis, MO) in PBS is added to each well of the plate and plates are incubated for an additional 5-6 h at 37° C., 5% CO2, and 95% humidity. Plates are read on a Synergy2 or equivalent reader (Biotek, Winooski VT) using an excitation of 540 nm and an emission of 600 nm. Data is analyzed using Prism software (GraphPad, San Diego, CA) to calculate IC50 values

Miapaca-2 cells = test: MiaPaca-2 Combination Cell Proliferation Assay (2) with cobimetinib; type: cell-based; details: MiaPaca-2 cell proliferation, read-out: MiaPaca-2 Combo (2) IC50
Experimental: MiaPaca-2 Combination Cell Proliferation Assay (2)
Miapaca-2 cells (catalog #CRL-1420) are obtained from the American Type Culture Collect (ATCC, Manassas, VA). Briefly, cells were grown in DMEM supplemented with 10% characterized fetal bovine serum (Invitrogen, Carlsbad, CA), 2.5% New Zealand sourced horse serum and 1% Penicillin/Streptomycin/L-Glutamine at 37° C., 5% CO2, and 95% humidity. Cells are expanded until reaching 70-95% confluency at which point they are subcultured or harvested for assay use. Using the Beckman Coulter Echo 650, a threefold, 8-point serial dilution of compound was spotted column wise into a 384 well black, clear bottom, tissue culture treated plate. Likewise, a threefold, 8-point serial dilution of cobimetinib was spotted row wise into the 384 well black, clear bottom plate containing compound. DMSO concentration was constant across all wells at 0.4%. Seven hundred fifty cells are added per well in 50 μL complete growth medium in each 384-well plate. Plates are incubated for 67-72 hours at 37° C., 5% CO2, and 95% humidity. At the end of the incubation, 10 μL of a 440 μM solution of resazurin (Sigma, St. Louis, MO) in PBS is added to each well of the plate and plates are incubated for an additional 4-6 hours at 37° C., 5% CO2, and 95% humidity. Plates are read on a Synergy2 or equivalent reader (Biotek, Winooski VT) using an excitation of 540 nm and an emission of 600 nm. Drug synergy was assessed via BLISS analysis in the Combenefit software (Cancer Research UK Cambridge Institute, Cambridge, UK). Data is analyzed using Prism software (Graphpad, San Diego, CA) to calculate IC50 values. Shifts in test compound IC50 values are reported from top-constrained combination therapy curves.

Row | IC50 (H2405 cells) | IC50 (Miapaca-2 cells) | Structure (SMILES)
1 | 100 to 500 nM | – | Cc1ccc(NC(=O)c2cc(C(F)(F)F)ccc2F)cc1-c1ccnc(-c2ccnc(NC(=O)C3CC3)c2)c1 [Example 503]
2 | 100 to 500 nM | – | Cc1ccc(NC(=O)c2ccnc(C(C)(C)F)c2)cc1-c1cc(-c2ccnc(C(N)=O)c2)ncn1 [Example 488]
3 | ≤ 100 nM | 100 to 500 nM | [2H]C([2H])([2H])NC(=O)c1cc(-c2cc(-c3cc(NC(=O)c4ccnc(C(C)(C)F)c4)ccc3C)ccn2)ccn1 [Example 489]
4 | 100 to 500 nM | – | CNC(=O)c1cc(-c2cc(-c3cc(NC(=O)c4ccnc(C(C)(C)F)c4)ncc3C)ccn2)ccn1 [Example 499]
5 | ≤ 100 nM | – | Cc1ccc(NC(=O)c2cccc(C(F)(F)F)c2)cc1-c1ccnc(-c2ccnc(NC(=O)C3CC3)c2)c1 [Example 502]
6 | 100 to 500 nM | – | Cc1ccc(NC(=O)c2ccnc(C(C)(C)F)c2)cc1-c1cc(-c2ccnc(C(N)=O)c2)ncc1F [Example 490]
7 | 100 to 500 nM | – | CC(C)(F)c1cc(C(=O)Nc2ccc(F)c(-c3ccnc(-c4ccnc(C(N)=O)c4)c3)c2)ccn1 [Example 491]
8 | 100 to 500 nM | 100 to 500 nM | [2H]C([2H])([2H])NC(=O)c1cc(-c2cc(-c3cc(NC(=O)c4ccnc(C(C)(C)F)c4)ccc3C)cc(C)n2)ccn1 [Example 493]
9 | 1000 to 10000 nM | – | Cc1ccc(NC(=O)c2cn(C)nc2C(F)(F)F)cc1-c1cncc(-c2ccnc(NC(=O)C3CC3)c2)c1 [Example 500]
10 | 100 to 500 nM | – | CNC(=O)c1cc(-c2cc(-c3cc(NC(=O)c4ccnc(C5(F)CC5)c4)ccc3C)cc(C)n2)ccn1 [Example 496]
11 | 100 to 500 nM | – | CNC(=O)c1cc(-c2cc(-c3cc(NC(=O)c4ccnc(C(C)(C)F)c4)ccc3Cl)ccn2)ccn1 [Example 485]
12 | 100 to 500 nM | – | CNC(=O)c1cc(-c2cc(-c3cc(NC(=O)c4cnnc(C(C)(F)F)c4)ccc3C)ccn2)ccn1 [Example 492]
13 | 100 to 500 nM | – | CNC(=O)c1cc(-c2cc(-c3cc(NC(=O)c4ccnc(C(C)(C)F)c4)c(F)cc3C)ccn2)ccn1 [Example 497]
14 | ≤ 100 nM | 100 to 500 nM | CNC(=O)c1cc(-c2cc(-c3cc(NC(=O)c4ccnc(C5(F)CC5)c4)ccc3C)ccn2)ccn1 [Example 487]
15 | 500 to 1000 nM | 1000 to 10000 nM | Cc1ccc(NC(=O)c2ccnc(C(C)(C)F)c2)cc1-c1cnnc(-c2ccnc(C(N)=O)c2)c1 [Example 486]
16 | 1000 to 10000 nM | – | CNC(=O)c1cc(-c2cc(-c3cc(NC(=O)c4ccnc(C(C)(C)F)n4)ccc3C)ccn2)ccn1 [Example 494]
17 | 100 to 500 nM | – | Cc1ccc(NC(=O)c2ccc(C(F)(F)F)cc2)cc1-c1ccnc(-c2ccnc(NC(=O)C3CC3)c2)c1 [Example 501]
18 | 100 to 500 nM | – | [2H]C([2H])([2H])NC(=O)c1cc(-c2cc(-c3cc(NC(=O)c4ccnc(C5(F)CC5)c4)ccc3C)cc(C)n2)ccn1 [Example 498]
19 | 100 to 500 nM | – | CNC(=O)c1cc(-c2cc(-c3cc(NC(=O)c4cnnc(C(C)(C)F)c4)ccc3C)ccn2)ccn1 [Example 495]
